Measured values from patent US9364414B2, “Method to protect skin from ultraviolet radiation using novel peptides involved in the improvement of microparasol organization in keratinocytes” (ISP Investments Inc., priority 2011, dated 2016).
Ends that are not written are not given here.

Experiments:
[1] = test system: cyclobutane pyrimidine dimers (CPDs) in NHEM; test: Amount of cyclobutane pyrimidine dimers (CPDs) in melanocytes after UVB (immunostaining); assay type: cell-based, human; conditions: UVB 75 mJ/cm^2
Description: DNA damages induced by UVB radiation can be monitored by quantifying the amount of cyclobutane pyrimidine dimers (CPDs), which are formed after conformational changes in the DNA structure. […] The quantification of CPDs was carried out by immunohistochemical assay.
NHEM (normal human epidermis melanocytes) were grown in Melanocyte Growth Medium (PromoCell) supplemented with 1 ng/ml human basic fibroblast growth factor, 52 μg/ml medium bovine pituitary extract, 0.5 μg/ml hydrocortisone, 5 μg/ml human recombinant insulin, 10 ng/ml phorbol 12-myristate 13-acetate (PMA) and 100 μg/ml of PRIMOCIN (In vivoGen). When the cells were sub-cultured for the experiment, the same medium depleted in PMA was used. Cells were maintained at 37° C. in a humidified atmosphere containing 5% of CO2.
Cells were treated, or not, in duplicate, twice a day for 48 hours with a solution of peptide compound SEQ ID NO: 7 at 100 ppm, diluted at 0.5% or 1% before use. Then, they were irradiated, or not, with a 75 mJ/cm^2 UVB dose using a specific oven to ensure the homogeneity of the treatment. […]
Three images per condition were analyzed. Each picture was converted in grey levels and analyzed with Image-Pro Analyzer 6.3 software (MediaCybernetics, Inc.) which generated a histogram representing the number of pixels per intensity. The sum of all intensities was calculated. […]

[2] = test system: supranuclear organization of melanosomes in ex-vivo skin; test: Microparasol supranuclear organization in ex-vivo skin (light and electron microscopy); assay type: cell-based, human; conditions: 0.5% (light microscopy) or 1% (electron microscopy), 48 hours
Description: 6 mm diameter punch biopsies were obtained from a person (light microscopy) and a person (electron microscopy) […]. They were cultivated on culture medium containing 50% of DMEM 1 g/L glucose (Lonza) and 50% of Ham's-F12 (Lonza) supplemented with 10% of FBS (Lonza), 2 mM of L-glutamine (Lonza) and 100 μg/ml of PRIMOCIN™ (InvivoGen). Skin biopsies were maintained at 37° C. in a humidified atmosphere containing 5% of CO2.
The stock solution of peptide compound SEQ ID NO: 7 was diluted at 0.5% or 1% before use. The biopsies were treated, or not, in duplicate, twice a day with 0.5% (light microscopy) or 1% (electron microscopy) of peptide compound SEQ ID NO: 7 for 48 hours.
After skin culture, tissues were fixed for 4 hours in buffered 10% formalin. Samples were transferred to baths with ethanol progressively concentrated to remove water, then followed by two baths of xylene to remove the alcohol, and finally embedded in molten paraffin wax. Embedded skin biopsies were then cut with a microtome (Shandon) into 4 μm thick sections and placed on SUPERFROST PLUS™ slides (Thermo Scientific).
Sections were deparaffinized and rehydrated with several successive xylene, alcohol and water baths. Then, 100 μl of Stock solution were added on each section and slides were incubated 10 minutes at 60° C. […]

[3] = test system: normal human epidermal melanocytes (NHEM); test: Comet assay on NHEM cells irradiated with UVB; assay type: cell-based; conditions: peptide 1% (0.5 ppm) 24 hours pretreatment + UVB 30 mJ/cm^2
Description: (§1) NHK and NHEM were placed in culture for 24 hours in the presence of a solution of peptide compound SEQ ID NO: 7 at 50 ppm diluted at 1% before use, then irradiated with UVB radiation in an amount of 30 mJ/cm^2 for NHEM and 60 mJ/cm^2 for NHK. A control condition was also used without a peptide active agent. The cells were then detached from their support by trypsin, then centrifuged at 900 rpm for 5 minutes in order to concentrate them and count them.
(§2) A defined number of cells (25,000 cells) was then embedded in a Low Melting agarose gel at 0.75%, then deposited on a glass slide previously coated with 1% agarose. The slides were then immersed in a lysis solution for 1 hour 30 minutes at 4° C., then in an alkaline solution for 20 minutes at 4° C. The cells were thus lysed and the DNA was denatured. The slides were immersed in an electrophoresis solution before an electric field (20 V-250 mA) is applied. The DNA thus denatured was subjected to migration in the agarose gel at 4° C. The application of a fluorescent DNA dye on the slides (propidium iodide at 2 μg/ml) makes it possible to observe, under the microscope, DNA appearing in the form of comets if it has been damaged.
(§3) Finally, quantification software makes it possible to determine the Tail Moment, means applied to each condition tested. […]

[4] = test system: normal human keratinocytes (NHK); test: Comet assay on NHK cells irradiated with UVB; assay type: cell-based
Description: as §1, §2, §3

[5] = test system: keratinocytes containing melanosomes (NHK/NHEM co-culture); test: Frequency of keratinocytes containing melanosomes in NHK/NHEM co-culture after p150Glued siRNA; assay type: cell-based, human; conditions: after 10 nM p150Glued siRNA, 48 hours
Description: Normal human primary keratinocytes (NHK) and normal human epidermal melanocytes (NHEM) were co-cultured (ratio: 1 melanocyte/4 keratinocytes) in Keratinocyte Serum Free Medium (KSFM, GIBCO) supplemented with 50 μg/ml bovine pituitary extract, 5 ng/ml human recombinant EGF (GIBCO) and 100 μg/ml Primocin™ (INVIVOGEN). Cells were maintained at 37° C. in a humidified atmosphere containing 5% CO2.
NHK and NHEM cells co-seeded for 48 hours were treated, or not, in duplicate, once with 10 nM of p150Glued-specific siRNA.
Cells were then treated, or not, in duplicate, twice a day for 48 hours with a solution of peptide compound SEQ ID NO: 7 at 100 ppm, diluted at 0.5% or 1% before use, without medium change.
Cells were rinsed with PBS and fixed with cold methanol for 4 minutes. Cellular membranes were permeabilized using 0.1% X-100 Triton (Fisher Scientific) for 10 minutes. Unspecific binding sites were blocked, then cells were incubated with the primary antibodies directed to melanosomes (mouse monoclonal anti-“pmel17” Abcam, ab34165 and rabbit monoclonal anti “keratin-14” Abcam, ab51054) diluted in PBS, for 1 hour and a half, under agitation, at room temperature, in a damp room. […]
Three images per condition were analyzed. […] The frequency of keratinocyte containing melanosomes was evaluated and expressed in percentage. […]

[6] = test system: dynactin subunit p150Glued; test: Expression of p150Glued in ex-vivo human skin biopsies (immunostaining); assay type: cell-based; conditions: 100 ppm stock diluted at 1%, twice a day, 48 hours
Description: Samples of ex-vivo human skin biopsies from a person, were cultured at the air/liquid interface. The samples were treated twice a day with a stock solution of peptide SEQ ID NO: 7 at 100 ppm, diluted at the 1%, for 48 hours.
Immunostaining was then performed by means of an antibody directed to p150Glued subunit (REF.Santacruz sc-9804), followed by a secondary antibody, coupled with a green fluorescent marker (REF Invitrogen, A11055). The skin sections were then examined using Nikon® Eclipse 80i microscope.
Quantification was carried out with VOLOCITY® image analysis software.

Asp-Leu-Lys-Lys-NH2 (DLKK-NH2) [SEQ ID NO: 7]
change of CPDs after UVB compared to the non treated condition ([1]; pretreated 48 hours with 0.5% (0.5 ppm)): −39% | change of CPDs after UVB compared to the non treated condition ([1]; pretreated 48 hours with 1% (1 ppm)): −59% | supranuclear organization of melanosomes above the nucleus [2]: better supranuclear organization of melanosomes | reduction in Tail Moment versus UVB condition [3]: 55% | reduction in Tail Moment versus UVB condition ([4]; peptide 1% (0.5 ppm) 24 hours pretreatment + UVB 60 mJ/cm^2): 70% | Tail Moment ([4]; peptide 1% (0.5 ppm) 24 hours pretreatment + UVB 60 mJ/cm^2, UVB alone 170.27, control 1.66): 51.36 | frequency of keratinocyte containing melanosomes compared to the control ([5]; peptide 0.5% (0.5 ppm)): partially restored | frequency of keratinocyte containing melanosomes compared to the control ([5]; peptide 1% (1 ppm)): fully restored | increase of the dynactin subunit p150Glued staining [6]: 80%
